Columns and labels:
[1] = tested on: Echinochloa oryzoides (Ard.) Fritsch.; assay: Preemergence weed control under flooded paddy conditions, ECHORC (Watergrass (Calif.)); type: in vivo; details: flooded paddy; also: meaning of each grade not given here
Cyperus iria = assay: Preemergence weed control under flooded paddy conditions, CYPIR (Rice Flatsedge); type: in vivo; details: flooded paddy; also: meaning of each grade not given here
[2] = tested on: Cyperus serotinus, Rottb.; assay: Preemergence weed control under flooded paddy conditions, CYPSE (Flatsedge); type: in vivo; also: meaning of each grade not given here
[3] = tested on: Monochoria vaginalis, Presl.; assay: Preemergence weed control under flooded paddy conditions, MOOVA (Monochoria); type: in vivo; details: flooded paddy; also: meaning of each grade not given here
Sagittaria pygmaea, L. = assay: Preemergence weed control under flooded paddy conditions, SAGPY (Arrowhead (Pygmaea)); type: in vivo; details: flooded paddy; also: meaning of each grade not given here
[4] = tested on: Oryza sativa, (L.) Tebonnet; assay: Rice tolerance to post-transplant applications under flooded paddy conditions (Example 187), ORYSAT (Rice, Tebonnet); details: for herbicidal effect rating ORYSAT: rated 3-4 weeks after treatment; for herbicidal effect rating, ORYSAT (rice tolerance): rated three to four weeks after treatment; as to herbicidal effect rating ORYSAT: meaning of each grade not given here
[5] = Rate 0.0320 kg/ha, preemergence, rated 3-4 weeks after treatment
[6] = Rate 0.0620 kg/ha, preemergence, rated 3-4 weeks after treatment
[7] = Rate 0.1250 kg/ha, preemergence, rated 3-4 weeks after treatment
[8] = Rate 0.2500 kg/ha, preemergence, rated 3-4 weeks after treatment
[9] = Rate 0.5000 kg/ha, preemergence, rated 3-4 weeks after treatment
[10] = 0.0315 kg/ha, preemergence weeds, rated three to four weeks after treatment
[11] = 0.0630 kg/ha, preemergence weeds, rated three to four weeks after treatment
[12] = 0.0313 kg/ha, preemergence, rated three to four weeks after treatment
[13] = 0.0625 kg/ha, preemergence, rated three to four weeks after treatment
[14] = 0.1250 kg/ha, preemergence, rated three to four weeks after treatment
[15] = 0.2500 kg/ha, preemergence, rated three to four weeks after treatment
[16] = 0.0313 kg/ha, preemergence weeds, rated three to four weeks after treatment
[17] = 0.0625 kg/ha, preemergence weeds, rated three to four weeks after treatment
[18] = 0.1250 kg/ha, preemergence weeds, rated three to four weeks after treatment
[19] = 0.2500 kg/ha, preemergence weeds, rated three to four weeks after treatment

CNC(=O)COc1ccccc1-c1nsc2ccc(-n3c(=O)cc(C(F)(F)F)n(C)c3=O)cc12 [Example 562, Acetamide, 2-{o-{5-[3,6-dihydro-3-methyl-2,6-dioxo-4-(trifluoromethyl)-1(2H)-pyrimidinyl]-1,2-benzisothiazol-3-yl}phenoxy}-N-methyl-]
herbicidal effect rating, ECHORC [1, 5]: 2.7 | herbicidal effect rating, ECHORC [1, 6]: 5.1 | herbicidal effect rating, ECHORC [1, 7]: 5.1 | herbicidal effect rating, ECHORC [1, 8]: 9.0 | herbicidal effect rating, ECHORC [1, 9]: 9.0 | herbicidal effect rating, CYPIR (Cyperus iria; [5]): 2.0 | herbicidal effect rating, CYPIR (Cyperus iria; [6]): 7.0 | herbicidal effect rating, CYPIR (Cyperus iria; [7]): 9.0 | herbicidal effect rating, CYPIR (Cyperus iria; [8]): 9.0 | herbicidal effect rating, CYPIR (Cyperus iria; [9]): 3.0 | herbicidal effect rating, CYPSE [2, 6]: 4.0 | herbicidal effect rating, CYPSE [2, 7]: 9.0 | herbicidal effect rating, CYPSE [2, 8]: 9.0 | herbicidal effect rating, CYPSE [2, 9]: 9.0 | herbicidal effect rating, MOOVA [3, 5]: 9.0 | herbicidal effect rating, MOOVA [3, 6]: 9.0 | herbicidal effect rating, MOOVA [3, 7]: 9.0 | herbicidal effect rating, MOOVA [3, 8]: 9.0 | herbicidal effect rating, MOOVA [3, 9]: 9.0 | herbicidal effect rating, SAGPY (Sagittaria pygmaea, L.; [5]): 0.0 | herbicidal effect rating, SAGPY (Sagittaria pygmaea, L.; [6]): 0.0 | herbicidal effect rating, SAGPY (Sagittaria pygmaea, L.; [7]): 5.0 | herbicidal effect rating, SAGPY (Sagittaria pygmaea, L.; [8]): 7.0 | herbicidal effect rating, SAGPY (Sagittaria pygmaea, L.; [9]): 0.0 | herbicidal effect rating ORYSAT ([4]; Rate 0.0320 kg/ha): 2.0 | herbicidal effect rating ORYSAT ([4]; Rate 0.0620 kg/ha): 3.0 | herbicidal effect rating ORYSAT ([4]; Rate 0.1250 kg/ha): 4.0 | herbicidal effect rating ORYSAT ([4]; Rate 0.2500 kg/ha): 9.0 | herbicidal effect rating ORYSAT ([4]; Rate 0.5000 kg/ha): 6.0

Cc1ccc(OCC(=O)OC2C=CCCC2)c(-c2nsc3ccc(-n4c(=O)cc(C(F)(F)F)n(C)c4=O)cc23)c1 (centres unmarked) [Example 185, 2-Cyclohexen-1-yl {{2-{5-[3,6-dihydro-3-methyl-2,6-dioxo-4-(trifluoromethyl)-1(2H)-pyrimidinyl]-1,2-benzisothiazol-3-yl}-p-tolyl}oxy}acetate]
herbicidal effect rating, ECHORC [1, 10]: 0.0 | herbicidal effect rating, ECHORC [1, 11]: 0.0 | herbicidal effect rating, CYPIR (Cyperus iria; [10]): 0.0 | herbicidal effect rating, CYPIR (Cyperus iria; [11]): 0.0 | herbicidal effect rating, CYPSE [2, 10]: 0.0 | herbicidal effect rating, CYPSE [2, 11]: 0.0 | herbicidal effect rating, MOOVA [3, 10]: 9.0 | herbicidal effect rating, MOOVA [3, 11]: 9.0 | herbicidal effect rating, SAGPY (Sagittaria pygmaea, L.; [10]): 0.0 | herbicidal effect rating, SAGPY (Sagittaria pygmaea, L.; [11]): 0.0 | herbicidal effect rating, ORYSAT (rice tolerance) ([4]; 0.0315 kg/ha): 0.0 | herbicidal effect rating, ORYSAT (rice tolerance) ([4]; 0.0630 kg/ha): 0.0

COC(=O)C(C)Oc1c(C)cc(C)cc1-c1nsc2ccc(-n3c(=O)cc(C(F)(F)F)n(C)c3=O)cc12 (centres unmarked) [Example 27, Methyl 2-{{6-{5-[3,6-dihydro-3-methyl-2,6-dioxo-4-(trifluoromethyl)-1(2H)-pyrimidinyl]-1,2-benzisothiazol-3-yl}-2,4-xylyl}oxy}propionate]
herbicidal effect rating, ECHORC [1, 12]: 6.0 | herbicidal effect rating, ECHORC [1, 13]: 7.0 | herbicidal effect rating, ECHORC [1, 14]: 9.0 | herbicidal effect rating, ECHORC [1, 15]: 9.0 | herbicidal effect rating, CYPIR (Cyperus iria; [12]): 2.0 | herbicidal effect rating, CYPIR (Cyperus iria; [13]): 4.0 | herbicidal effect rating, CYPIR (Cyperus iria; [14]): 6.0 | herbicidal effect rating, CYPIR (Cyperus iria; [15]): 9.0 | herbicidal effect rating, CYPSE [2, 12]: 0.0 | herbicidal effect rating, CYPSE [2, 13]: 0.0 | herbicidal effect rating, CYPSE [2, 14]: 0.0 | herbicidal effect rating, CYPSE [2, 15]: 2.0 | herbicidal effect rating, MOOVA [3, 12]: 8.0 | herbicidal effect rating, MOOVA [3, 13]: 9.0 | herbicidal effect rating, MOOVA [3, 14]: 9.0 | herbicidal effect rating, MOOVA [3, 15]: 9.0 | herbicidal effect rating, SAGPY (Sagittaria pygmaea, L.; [12]): 0.0 | herbicidal effect rating, SAGPY (Sagittaria pygmaea, L.; [13]): 0.0 | herbicidal effect rating, SAGPY (Sagittaria pygmaea, L.; [14]): 2.0 | herbicidal effect rating, SAGPY (Sagittaria pygmaea, L.; [15]): 4.0 | herbicidal effect rating, ORYSAT (rice tolerance) ([4]; 0.0313 kg/ha): 2.0 | herbicidal effect rating, ORYSAT (rice tolerance) ([4]; 0.0625 kg/ha): 3.0 | herbicidal effect rating, ORYSAT (rice tolerance) ([4]; 0.1250 kg/ha): 5.0 | herbicidal effect rating, ORYSAT (rice tolerance) ([4]; 0.2500 kg/ha): 6.0

CCN(CC)c1nsc2ccc(-n3c(=O)cc(C(F)(F)F)n(C)c3=O)cc12 [Example 118, 3-[3-(Diethylamino)-1,2-benzisothiazol-5-yl]-1-methyl-6-(trifluoromethyl)-2,4(1H,3H)-pyrimidinedione]
herbicidal effect rating, ECHORC [1, 16]: 0.0 | herbicidal effect rating, ECHORC [1, 17]: 0.0 | herbicidal effect rating, ECHORC [1, 18]: 0.0 | herbicidal effect rating, ECHORC [1, 19]: 0.0 | herbicidal effect rating, CYPIR (Cyperus iria; [16]): 0.0 | herbicidal effect rating, CYPIR (Cyperus iria; [17]): 0.0 | herbicidal effect rating, CYPIR (Cyperus iria; [18]): 0.0 | herbicidal effect rating, CYPIR (Cyperus iria; [19]): 0.0 | herbicidal effect rating, CYPSE [2, 16]: 0.0 | herbicidal effect rating, CYPSE [2, 17]: 0.0 | herbicidal effect rating, CYPSE [2, 18]: 0.0 | herbicidal effect rating, CYPSE [2, 19]: 0.0 | herbicidal effect rating, MOOVA [3, 16]: 0.0 | herbicidal effect rating, MOOVA [3, 17]: 0.0 | herbicidal effect rating, MOOVA [3, 18]: 0.0 | herbicidal effect rating, MOOVA [3, 19]: 0.0 | herbicidal effect rating, SAGPY (Sagittaria pygmaea, L.; [16]): 0.0 | herbicidal effect rating, SAGPY (Sagittaria pygmaea, L.; [17]): 0.0 | herbicidal effect rating, SAGPY (Sagittaria pygmaea, L.; [18]): 0.0 | herbicidal effect rating, SAGPY (Sagittaria pygmaea, L.; [19]): 0.0 | herbicidal effect rating, ORYSAT (rice tolerance) ([4]; 0.0313 kg/ha): 0.0 | herbicidal effect rating, ORYSAT (rice tolerance) ([4]; 0.0625 kg/ha): 0.0 | herbicidal effect rating, ORYSAT (rice tolerance) ([4]; 0.1250 kg/ha): 0.0 | herbicidal effect rating, ORYSAT (rice tolerance) ([4]; 0.2500 kg/ha): 0.0

Reference: patent publication EP0908457B1, “3-(1,2-benzisothiazol- and isoxazol-5-Y1)-2,4(1H,3H)-pyrimidinedione or thione and 3-(1,2-benzisothiazol- and isoxazol-5-y1)-4(3H)-pyrimidinone or thione herbicidal agents” (BASF AKTIENGESELLSCHAFT, priority 1997, dated 1999)
